The source of these data is patent US9260408B2, “Dihydroquinoline-2-one derivatives” (Hoffmann-La Roche Inc., priority 2011, dated 2016).

Where a name gives a salt, the structure may show the parent alone.

Assay [1] has as its target T1, human CYP11B2 (Homo sapiens, UniProt P19099).
T1 construct: expressed in transfected cells
T1 sequence (P19099 25-503): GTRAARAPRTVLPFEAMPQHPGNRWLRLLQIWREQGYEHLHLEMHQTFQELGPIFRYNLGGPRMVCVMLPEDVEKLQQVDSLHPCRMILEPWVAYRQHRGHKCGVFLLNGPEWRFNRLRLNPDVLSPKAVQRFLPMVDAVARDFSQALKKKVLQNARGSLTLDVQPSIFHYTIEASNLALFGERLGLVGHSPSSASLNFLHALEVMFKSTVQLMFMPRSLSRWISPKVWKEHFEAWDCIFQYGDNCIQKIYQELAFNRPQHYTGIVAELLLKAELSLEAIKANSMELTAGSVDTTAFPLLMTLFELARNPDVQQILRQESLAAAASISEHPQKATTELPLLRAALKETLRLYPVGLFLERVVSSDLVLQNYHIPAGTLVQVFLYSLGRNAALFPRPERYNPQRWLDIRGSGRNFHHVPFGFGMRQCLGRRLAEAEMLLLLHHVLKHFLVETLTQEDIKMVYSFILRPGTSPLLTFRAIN
Briefly: G-402 cellular enzyme assay, human CYP11B2 (aldosterone release, HTRF). The format is cell-based. The following applies: G-402 cells expressing human CYP11B2; 1 μM Deoxycorticosterone. The method, boiled down:
(§1)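 EC50 comes from least-squares fitting of a 4-parameter MMF curve to steroid product levels, measured by HTRF as aldosterone for CYP11B2 or cortisol for CYP11B1. Stably transfected G-402 host cells were given substrate (1 μM deoxycorticosterone or deoxycortisol, respectively) with inhibitor for 16 h in medium with 2.5% charcoal-treated FCS.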
(Time-resolved FRET reads energy transfer from a long-lived donor to a nearby acceptor.)

Assay [2] addresses T2, human CYP11B1 (Homo sapiens, UniProt P15538).
T2 construct: expressed in transfected cells
T2 sequence (P15538 25-503): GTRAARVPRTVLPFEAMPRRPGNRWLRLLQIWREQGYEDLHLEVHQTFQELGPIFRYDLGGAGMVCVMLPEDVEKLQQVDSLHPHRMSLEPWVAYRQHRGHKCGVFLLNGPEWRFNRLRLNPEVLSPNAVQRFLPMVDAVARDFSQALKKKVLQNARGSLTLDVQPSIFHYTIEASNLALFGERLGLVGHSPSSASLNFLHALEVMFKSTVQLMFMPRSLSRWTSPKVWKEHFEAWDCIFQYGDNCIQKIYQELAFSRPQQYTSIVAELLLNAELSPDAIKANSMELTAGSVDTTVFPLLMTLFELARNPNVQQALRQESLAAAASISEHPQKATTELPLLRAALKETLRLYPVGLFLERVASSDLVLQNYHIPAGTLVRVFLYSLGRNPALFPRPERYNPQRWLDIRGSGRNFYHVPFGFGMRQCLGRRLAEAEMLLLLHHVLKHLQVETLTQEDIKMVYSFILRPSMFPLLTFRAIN
Briefly: G-402 cellular enzyme assay, human CYP11B1 (cortisol release, HTRF). The format is cell-based. Conditions: G-402 cells expressing human CYP11B1; 1 μM Deoxycortisol. The gist of the method: as §1

In assay [3] the test system is rat model of chronic kidney disease. The following applies: cited from earlier work.

`CN(Cc1cncc(-c2ccc3c(c2)CCC(=O)N3C)c1Cl)C(=O)c1ncccc1Cl` [Example 228, 3-Chloro-pyridine-2-carboxylic acid [4-chloro-5-(1-methyl-2-oxo-1,2,3,4-tetrahydro-quinolin-6-yl)-pyridin-3-ylmethyl]-methyl-amide]: the EC50 – broadly, the midpoint of the concentration-response curve – in assay [1] came to 9 nM; in assay [2], 356 nM.
For `Cc1c(CN(C)C(=O)c2ncccc2Cl)cncc1-c1ccc2c(c1)CCC(=O)N2C` [Example 229, 3-Chloro-pyridine-2-carboxylic acid methyl-[4-methyl-5-(1-methyl-2-oxo-1,2,3,4-tetrahydro-quinolin-6-yl)-pyridin-3-ylmethyl]-amide], in that order: 10 nM and 656 nM.
The corresponding values for `CN1C(=O)CCc2cc(-c3cncc(C4=CN(C(=O)OC(C)(C)C)CCC4)c3)ccc21` [Example 231, 5′-(1-Methyl-2-oxo-1,2,3,4-tetrahydro-quinolin-6-yl)-5,6-dihydro-4H-[3,3′]bipyridinyl-1-carboxylic acid tert-butyl ester] are 19 nM and 802 nM.
The corresponding values for `CN1C(=O)CCc2cc(-c3cncc(OCCNC(=O)OC(C)(C)C)c3)c(F)cc21` [Example 232, {2-[5-(7-Fluoro-1-methyl-2-oxo-1,2,3,4-tetrahydro-quinolin-6-yl)-pyridin-3-yloxy]-ethyl}-carbamic acid tert-butyl ester] are 1 nM and 16 nM.
Regarding `CN1C(=O)CCc2cc(-c3cncc(OCCNC(=O)c4ncccc4Cl)c3)ccc21` [Example 233, 3-Chloro-pyridine-2-carboxylic acid {2-[5-(1-methyl-2-oxo-1,2,3,4-tetrahydro-quinolin-6-yl)-pyridin-3-yloxy]-ethyl}-amide], the EC50 in assay [1] amounted to 13 nM; in assay [2], 219 nM.
Consider `CCS(=O)(=O)NCc1cncc(-c2cc3c4c(c2)CCN4C(=O)CC3)c1` [Example 234, Ethanesulfonic acid [5-(4-oxo-1,2,5,6-tetrahydro-4H-pyrrolo[3,2,1-ij]quinolin-8-yl)-pyridin-3-ylmethyl]-amide], for which the figures for the EC50 in assay [1] and in assay [2] were 27 nM and 2260 nM, respectively.
The corresponding values for `CCS(=O)(=O)NCc1cncc(-c2cc3c4c(c2)CCC(=O)N4CCC3)c1` [Example 235, Ethanesulfonic acid [5-(3-oxo-2,3,6,7-tetrahydro-1H,5H-pyrido[3,2,1-ij]quinolin-9-yl)-pyridin-3-ylmethyl]-amide] are 109 nM and 4660 nM.
The corresponding values for `O=C(NCc1cncc(-c2cc3c4c(c2)CCN4C(=O)CC3)c1)c1ncccc1Cl` [Example 236, 3-Chloro-pyridine-2-carboxylic acid [5-(4-oxo-1,2,5,6-tetrahydro-4H-pyrrolo[3,2,1-ij]quinolin-8-yl)-pyridin-3-ylmethyl]-amide] are 3 nM and 77 nM.
The corresponding values for `CN(Cc1cncc(-c2cc3c4c(c2)CCN4C(=O)CC3)c1)C(=O)c1ncccc1Cl` [Example 237, 3-Chloro-pyridine-2-carboxylic acid methyl-[5-(4-oxo-1,2,5,6-tetrahydro-4H-pyrrolo[3,2,1-ij]quinolin-8-yl)-pyridin-3-ylmethyl]-amide] are 8 nM and 143 nM.
Consider `CN1C(=O)CCc2cc(-c3cncc(OCCN)c3)c(F)cc21` [Example 238, 6-[5-(2-Amino-ethoxy)-pyridin-3-yl]-7-fluoro-1-methyl-3,4-dihydro-1H-quinolin-2-one hydrochloride], for which the results for the EC50 in assay [1] and in assay [2] were 5 nM and 513 nM, respectively.
As to `CCS(=O)(=O)NCCOc1cncc(-c2cc3c(cc2F)N(C)C(=O)CC3)c1` [Example 243, Ethanesulfonic acid {2-[5-(7-fluoro-1-methyl-2-oxo-1,2,3,4-tetrahydro-quinolin-6-yl)-pyridin-3-yloxy]-ethyl}-amide], the concentration for a half-maximal effect (EC50) in assay [1] is 1 nM; in assay [2], 26 nM.
For `CN1C(=O)CCc2cc(-c3cncc(OCCNC(=O)c4ncccc4Cl)c3)c(F)cc21` [Example 244, 3-Chloro-pyridine-2-carboxylic acid {2-[5-(7-fluoro-1-methyl-2-oxo-1,2,3,4-tetrahydro-quinolin-6-yl)-pyridin-3-yloxy]-ethyl}-amide], in that order: 2 nM and 75 nM.
Turning to `CN1C(=O)CCc2cc(-c3cncc(O[C@H]4CC[C@H](NS(C)(=O)=O)CC4)c3)ccc21` [Example 245, N-{(trans)-4-[5-(1-Methyl-2-oxo-1,2,3,4-tetrahydro-quinolin-6-yl)-pyridin-3-yloxy]-cyclohexyl}-methanesulfonamide], the values for the EC50 in assay [1] and in assay [2] were 1 nM and 72 nM, respectively.
For `Cc1noc(C)c1C(=O)NCc1cncc(-c2cc3c(cc2F)N(C)C(=O)CC3)c1C` [Example 246, 3,5-Dimethyl-isoxazole-4-carboxylic acid [5-(7-fluoro-1-methyl-2-oxo-1,2,3,4-tetrahydro-quinolin-6-yl)-4-methyl-pyridin-3-ylmethyl]-amide], in that order: 13 nM and 4720 nM.
For `CN1C(=O)CCc2cc(-c3cncc(C4=CCN(C(=O)OC(C)(C)C)CC4)c3)ccc21` [Example 247, 5-(1-Methyl-2-oxo-1,2,3,4-tetrahydro-quinolin-6-yl)-3′,6′-dihydro-2′H-[3,4′]bipyridinyl-1′-carboxylic acid tert-butyl ester], in that order: 5 nM and 69 nM.
The corresponding values for `CC(=O)N1CC[C@H](Oc2cncc(-c3ccc4c(c3)CCC(=O)N4C)c2)C1` [Example 254, 6-[5-((S)-1-Acetyl-pyrrolidin-3-yloxy)-pyridin-3-yl]-1-methyl-3,4-dihydro-1H-quinolin-2-one] are 1 nM and 49 nM.
As to `CN1C(=O)CCc2cc(-c3cncc(O[C@H]4CCN(C(=O)c5cnn(C)c5)C4)c3)ccc21` [Example 255, 1-Methyl-6-{5-[(S)-1-(1-methyl-1H-pyrazole-4-carbonyl)-pyrrolidin-3-yloxy]-pyridin-3-yl}-3,4-dihydro-1H-quinolin-2-one], the concentration for a half-maximal effect (EC50) was found to be 13 nM in assay [1] and 1320 nM in assay [2].
`CCOC(=O)N1CC[C@H](Oc2cncc(-c3ccc4c(c3)CCC(=O)N4C)c2)C1` [Example 256, (S)-3-[5-(1-Methyl-2-oxo-1,2,3,4-tetrahydro-quinolin-6-yl)-pyridin-3-yloxy]-pyrrolidine-1-carboxylic acid ethyl ester]: the concentration for a half-maximal effect (EC50) in assay [1] is 8 nM; in assay [2] it was 158 nM.
For `Cc1oncc1C(=O)NCc1cncc(-c2cc3c(cc2F)N(C)C(=O)CC3)c1C` [Example 259, 5-Methyl-isoxazole-4-carboxylic acid [5-(7-fluoro-1-methyl-2-oxo-1,2,3,4-tetrahydro-quinolin-6-yl)-4-methyl-pyridin-3-ylmethyl]-amide], in that order: 1 nM and 154 nM.
The corresponding values for `Cn1c(=O)ccc2cc(-c3cncc(C4(N)CC4)c3)ccc21` [Example 262, 6-[5-(1-Amino-cyclopropyl)-pyridin-3-yl]-1-methyl-1H-quinolin-2-one] are 84 nM and 1820 nM.
For `CCC(=O)NCc1cncc(-c2ccc3c(c2)CCC(=O)N3C)c1Cl` [Example 265, N-[4-Chloro-5-(1-methyl-2-oxo-1,2,3,4-tetrahydro-quinolin-6-yl)-pyridin-3-ylmethyl]-propionamide], in that order: 9 nM and 623 nM.
Take `Cc1noc(C)c1C(=O)NCCOc1cncc(-c2cc3c(cc2F)N(C)C(=O)CC3)c1` [Example 267, 3,5-Dimethyl-isoxazole-4-carboxylic acid {2-[5-(7-fluoro-1-methyl-2-oxo-1,2,3,4-tetrahydro-quinolin-6-yl)-pyridin-3-yloxy]-ethyl}-amide]: the EC50 in assay [1] stood at 1 nM; in assay [2] it was 236 nM.
With `CC(=O)S[C@@H]1CC2=CC(=O)CC[C@]2(C)[C@H]2CC[C@@]3(C)[C@@H](CC[C@@]34CCC(=O)O4)[C@H]12` [spironolactone], the plasma aldosterone entry in assay [3] (FAD286: 4 weeks of treatment, spironolactone: 4 and 8 weeks of treatment) was “increased”. Moreover, the “renal effects (albuminuria, azotemia, renovascular hypertrophy, glomerular injury, PAI-1 and osteopontin mRNA, tubulointerstitial fibrosis)” value in assay [3] (angiotensin II and high salt treatment) is reported as “prevented these renal effects”. In assay [3] (rat, in vivo), the “angiotensin II and salt-stimulated PAI-1 mRNA expression in the aorta and the heart” value was “enhanced”.
